Data as given in patent publication US20030013660A1, “Dioxolane analogs for improved inter-cellular delivery” (Shire BioChem Inc., priority 2000, published 2003).
Values joined by “and” are separate entries in the source; they are usually repeats but may differ in a detail not shown here. Equal entries are not always repeated.

Experiments:
SF-268 [1] = assay: MTT assay at 72 hr (24 hr drug exposure, wash, 48 hr); type: cell-based
Method: (§1) Exposition of 24hr to drug, washed, and incubated for another 48hr (total of 72hr assay)

CCRF-CEM [2] = assay: 3H-TdR incorporation at 72 hr (24 hr drug exposure, wash, 48 hr); type: cell-based; settings: read-out: IC50 in μM (3H-TdR incorporation at 72 hr) CCRF-CEM 24 h, CCRF-CEM T-cell Leukemia, 72 hr assay
Method: (§2) Exposition of 24 hr to drug, wash, incubated for another 48 hr (total of 72 hr assay)
(§3) (3H-Thymidine Incorporation Assay)

CEM/dCK- [3] = assay: as above; type: cell-based; settings: for IC50: Homo sapiens, CCRF-CEM, read-out: IC50 in μM (3H-TdR incorporation at 72 hr) CEM/dCK- 24 h, CCRF-CEM deoxycytidine kinase-deficient, 24 h drug exposure, 72 hr assay; for Factor* (Resistance Factor = Ratio of dCK- on Wild-type CCRF-CEM): ratio of IC50 CEM/dCK- to IC50 CCRF-CEM
Method: as §2, §3

H-460 [4] = assay: as above; type: cell-based, Human; settings: Homo sapiens, NCI-H460, read-out: IC50 in μM (3H-TdR incorporation at 72 hr) H-460 24 h, H-460 Human Lung Carcinoma, 72 hr assay
Method: as §2, §3

MCF-7 [5] = assay: as above; type: cell-based, Human; settings: Homo sapiens, MCF7, read-out: IC50 in μM (3H-TdR incorporation at 72 hr) MCF-7 24 h, MCF-7 Human Breast Carcinoma, 72 hr assay
Method: as §2, §3

SF-268 [6] = assay: as above; type: cell-based, Human; settings: Homo sapiens, SF-268, read-out: IC50 in μM (3H-TdR incorporation at 72 hr) SF-268 24 h, SF-268 Human Central Nervous System Tumor; 24 h drug exposure, 72 hr assay
Method: as §2, §3

CCRF-CEM [7] = assay: MTT or WST-1 assay at 72 hr (24 hr drug exposure, wash, 48 hr); type: cell-based
Method: as §1

MCF-7 [8] = assay: MTT assay at 72 hr (24 hr drug exposure, wash, 48 hr); type: cell-based
Method: as §1

CEM/dCK- [9] = assay: MTT or WST-1 assay at 72 hr (24 hr drug exposure, wash, 48 hr); type: cell-based
Method: as §1

H-460 [10] = assay: MTT assay at 72 hr (24 hr drug exposure, wash, 48 hr); type: cell-based
Method: as §1

[11] = Homo sapiens, CCRF-CEM, read-out: IC50 CCRF-CEM 24 h, MMT or WST-1 at 72 hr, 24 h exposure, single experiment
[12] = read-out: IC50 CCRF-CEM 24 h, MMT or WST-1 at 72 hr, 24 h exposure, single experiment
[13] = read-out: IC50 CEM/dCK- 24 h, MMT or WST-1 at 72 hr, 24 h exposure, single experiment
[14] = read-out: IC50 H-460 24 h, MTT at 72 hr, 24 h exposure, single experiment
[15] = read-out: IC50 CEM/dCK- 24 h; MMT or WST-1 at 72 hr, 24 h exposure, single experiment
[16] = Homo sapiens, NCI-H460, read-out: IC50 H-460 24 h, MTT at 72 hr, 24 h exposure, single experiment

SMILES | IC50 (CCRF-CEM [2]; Homo sapiens, CCRF-CEM) [nM] | IC50 (CCRF-CEM [2]) [nM] | IC50 (CEM/dCK- [3]) [µM] | IC50 (H-460 [4]) [µM] | IC50 (MCF-7 [5]) [µM] | IC50 (SF-268 [6]) [µM] | IC50 (CCRF-CEM [7]; [11]) [nM] | IC50 (CCRF-CEM [7]; [12]) [nM] | IC50 (MCF-7 [8]; Homo sapiens, MCF7, read-out: IC50 MCF-7 24 h, MTT at 72 hr, 24 h exposure, single experiment) [nM] | IC50 (MCF-7 [8]; read-out: IC50 MCF-7 24 h, MTT at 72 hr, 24 h exposure, single experiment) | IC50 (SF-268 [1]; read-out: IC50 SF-268 24 h, MTT at 72 hr, 24 h exposure, single experiment) [nM] | Factor* (Resistance Factor = Ratio of dCK- on Wild-type CCRF-CEM) (CEM/dCK- [3]) | IC50 (CEM/dCK- [9]; [13]) [nM] | IC50 (H-460 [10]; [14]) | IC50 (CEM/dCK- [9]; [15]) | IC50 (H-460 [10]; [16]) [nM] | IC50 (SF-268 [1]; Homo sapiens, SF-268, read-out: IC50 SF-268 24 h, MTT at 72 hr, 24 h exposure, single experiment) [nM]
CCCCC[C@]12CC[C@](C(=O)OC[C@H]3OC[C@@H](n4ccc(N)nc4=O)O3)(CC1)CC2 [Compound 211, 4-PENTYL- BICYCLO[2.2.2]OCTANE-1- CARBOXYLIC ACID 4-(4- AMINO-2-OXO-2H- PYRIMIDIN-1-YL)- [1,3]DIOXOLAN-2-YL METHYL ESTER] | 0.027 | 0.053 | – | – | – | – | – | – | – | – | 34 | – | – | – | – | – | –
Nc1ccn([C@@H]2CO[C@H](COC(=O)C3(c4ccccc4)CC3)O2)c(=O)n1 [Compound 223, 1-PHENYL- CYCLOPROPANECARBOXYLIC ACID 4-(4-AMINO-2-OXO- 2H-PYRIMIDIN-1-YL)- [1,3]DIOXOLAN-2-YL METHYL ESTER] | 62 | – | > 100 | 0.035 | 0.15 | 0.25 | – | – | 1700 | 2100 nM and 1400 nM | – | >1613 | > 100000 | – | – | – | –
CCC(CCCCCCc1ccccc1)C(=O)OC[C@H]1OC[C@@H](n2ccc(N)nc2=O)O1 (stereo partly drawn) [Compound 266, 2-ETHYL-8-PHENYL- OCTANOIC ACID 4-(4- AMINO-2-OXO-2H- PYRIMIDIN-1-YL)- [1,3]DIOXOLAN-2- YLMETHYL ESTER] | – | – | – | – | – | – | – | – | – | – | – | – | 21000 | – | 26000 nM | – | –

Further lines, with some results ahead:

IC50 (CCRF-CEM [2]; Homo sapiens, CCRF-CEM) [nM] | IC50 (CCRF-CEM [2]) [nM] | IC50 (CEM/dCK- [3]) [µM] | IC50 (H-460 [4]) [µM] | IC50 (MCF-7 [5]) [µM] | IC50 (SF-268 [6]) [µM] | IC50 (CCRF-CEM [7]; [11]) [nM] | IC50 (CCRF-CEM [7]; [12]) [nM] | IC50 (MCF-7 [8]; Homo sapiens, MCF7, read-out: IC50 MCF-7 24 h, MTT at 72 hr, 24 h exposure, single experiment) [nM] | IC50 (MCF-7 [8]; read-out: IC50 MCF-7 24 h, MTT at 72 hr, 24 h exposure, single experiment) | SMILES | IC50 (SF-268 [1]; read-out: IC50 SF-268 24 h, MTT at 72 hr, 24 h exposure, single experiment) [nM] | Factor* (Resistance Factor = Ratio of dCK- on Wild-type CCRF-CEM) (CEM/dCK- [3]) | IC50 (CEM/dCK- [9]; [13]) [nM] | IC50 (H-460 [10]; [14]) | IC50 (CEM/dCK- [9]; [15]) | IC50 (H-460 [10]; [16]) [nM] | IC50 (SF-268 [1]; Homo sapiens, SF-268, read-out: IC50 SF-268 24 h, MTT at 72 hr, 24 h exposure, single experiment) [nM]
– | – | 2.1 | ≤ 0.0001 | ≤ 0.0001 | 0.00012 | 18 | 10 | – | – | CCCCCCCC/C=C\CCCCCCCC(=O)Nc1ccn([C@@H]2CO[C@H](CO)O2)c(=O)n1 [Compound 219, OCTADEC-9-ENOIC ACID [1-(2-HYDROXYMETHYL- [1,3]DIOXOLAN-4-YL)-2- OXO-1,2-DIHYDRO- PYRIMIDIN-4-YL]-AMIDE] | – | – | – | – | – | – | –
3 | – | 20 | 0.0065 | 0.00033 | 0.19 | – | – | – | – | CCCCC[C@H]1CC[C@H](C(=O)Nc2ccn([C@@H]3CO[C@H](CO)O3)c(=O)n2)CC1 [Compound 239, 4-PENTYL- CYCLOHEXANECARBOXYLIC ACID [1-(2- HYDROXYMETHYL- [1,3]DIOXOLAN-4-YL)-2- OXO-1,2-DIHYDRO- PYRIMIDIN-4-YL]-AMIDE] | – | 6667 | 20000 | 200 nM | 28000 nM and 17000 nM | – | –
100 | – | 15 | 0.13 | 0.00078 | 0.13 | – | – | – | – | CC(CCCCCCc1ccccc1)C(=O)Nc1ccn([C@@H]2CO[C@H](CO)O2)c(=O)n1 (stereo partly drawn) [Compound 247, 2-Methyl-8-phenyl-octanoic acid [1-(2-hydroxymethyl-[1,3]dioxolan-4-yl)-2-oxo-1,2-dihydro-pyrimidin-4-yl]-amide] | – | 150 | 61000 | 540 nM and 460 nM | 49000 nM | 390 | –
– | – | – | – | – | – | 19000 | 14000 | – | – | CC(C)C[C@H](NC(=O)[C@H](C)NC(=O)OC(C)(C)C)C(=O)Nc1ccn([C@@H]2CO[C@H](CO)O2)c(=O)n1 [Compound 263, (1-{1-[1-(2- HYDROXYMETHYL- [1,3]DIOXOLAN-4-YL)-2- OXO-1,2-DIHYDRO- PYRIMIDIN-4- YLCARBANOYL]-3-METHYL- BUTYLCARBAMOYL}-ETHYL)- CARBAMIC ACID TERT- BUTYL ESTER] | – | – | > 100000 | > 100000 nM | – | 66000 | > 100000
